Values quoted from earlier work as cited in publication PMC2228077, “The bioavailability of oral GI147211 (GG211), a new topoisomerase I inhibitor” (British Journal of Cancer, 1997).
“And” between values parts separate entries of the source, which are not always exact repeats. Identical values can stand only once.

How the values were obtained:
[1] = human, in vivo, po; cited from earlier work
[2] = design: method as in Kuhn et al, 1995; Schellens et al, 1996; details: oral topotecan; ref Kuhn et al, 1995; Schellens et al, 1996; cited from earlier work
[3] = design: method as in Rowinsky et al, 1992; Verweij et al, 1993; details: ref Rowinsky et al, 1992; Verweij et al, 1993; cited from earlier work

SMILES	patients who developed CTC grade >= II diarrhoea [1]	bioavailability (variable systemic exposure) [2]	dose-limiting toxicity [3]
CC[C@@]1(O)C(=O)OCc2c1cc1n(c2=O)Cc2cc3c([N+](=O)[O-])cccc3nc2-1 [9-nitro-camptothecin]	33%	–	–
CC[C@@]1(O)C(=O)OCc2c1cc1n(c2=O)Cc2cc3c(CN(C)C)c(O)ccc3nc2-1 [topotecan]	–	32% and 44%	cumulative myelosuppression
